Data from patent publication US20220195360A1, “Additive Manufacturing of Functional Myocardial Tissue” (The United States of America, as represented by the …, priority 2017, published 2022).
Like-named read-outs stand apart in the source and are kept apart here.

How the values were obtained:
Type in all cases: cell-based
[1] = test system: endothelial cells (HUVECs); conditions: human, 6 day
Method: (§1) Both bioink 26 and CaCl2) solutions can be maintained at 37° C. before use. HUVECs can be re-suspended in the bioink at a concentration of 1×10^7 cells/mL. Following the bioprinting and the subsequent crosslinking processes, the constructs can be washed with PBS to remove excess CaCl2). After washing, the constructs can be cultured in endothelial cell growth medium (EGM) at 37° C. and 5% CO2 volume throughout a period of up to 33 days. The EGM/CO2 medium can be changed twice in the first day and then every 2 days thereafter.
(§2) Live/Dead staining was performed according to the manufacturer's instructions (THERMO FISHER®). Beating of the cardiomyocytes was observed using an optical microscope and analyzed using custom-coded MATLAB programs, as known in the prior art. Monitoring of the beating behavior was performed every day until contractions were no longer observed. […] The levels of secreted vWF were measured by an ELISA kit (ab189571) by ABCAM®.
(§3) For example, the endothelialized-myocardium-on-a-chip model can be used to assess treatment by a common anti-cancer drug, doxorubicin. Unlike other pre-existing models, where only individual cell types were typically included, doxorubicin elicited dose-dependent responses towards both cardiomyocytes and endothelial cells when assessed using the systems and methods of several embodiments.

[2] = test system: neonatal rat cardiomyocytes; conditions: 6 day
Method: For testing of the systems and methods according to several embodiments, neonatal rat cardiomyocytes were seeded following the formation of a layer of confluent endothelium at the peripheries the microfibers of the scaffolds, which generally occurred in 15 days. Freshly isolated cardiomyocytes were suspended in DMEM at a final concentration of 1×10^6 cells m/L. The scaffolds were individually placed on top of a thin layer of hydrophobic polydimethylsiloxane (PDMS). Approximately 40 μL of cell suspension was dropped to cover each scaffold, and incubated at 37° C. for 2 hours, to allow the cardiomyocytes to adhere onto the microfibers. […]
as §2, with “art.” for “art. Monitoring of the beating behavior was performed every day until contractions were no longer observed.”, “ABCAM®. […]” for “ABCAM®.”
as §3

hiPSC-cardiomyocytes = conditions: human
Method: The seeding of hiPSC-cardiomyocytes can follow the same procedure that is described above for neonatal rat cardiomyocytes, except that a Roswell Park Memorial Institute (RPMI)-1640 medium containing 1×B27 supplements (by GIBCO®) can be used for culturing. Other choices in the prior art that are known for culturing cardiomyocytes might also be possible.
as §2
(§4) The same procedures for fabricating the vascular beds using bioprinted microfibrous scaffolds as described above were used, but hiPSC-cardiomyocytes were subsequently seeded instead of the neonatal rat cells. […] The human-derived myocardial organoids seemed to have slightly lower endurance at all of the time points analyzed in comparison to those of rat origin (FIG. 8C versus FIG. 7C). […]

[3] = test system: endothelial cells (HUVECs); experiment: vWF expression by the endothelial component of the endothelialized-human-myocardium-on-a-chip; conditions: different doses, human model (FIG. 8D) compared with rat model (FIG. 7D)
Method: as §1, §2, §4

- levels of von Willebrand factor (vWF) secreted by the endothelial cells ([1]; 10 μM): 76.0%
- levels of von Willebrand factor (vWF) secreted by the endothelial cells ([1]; 100 μM): 35.3%
- relative beating rate of the cardiomyocytes ([2]; 10 μM): 70.5%
- relative beating rate of the cardiomyocytes ([2]; 100 μM): 1.62%
- relative beating of the hiPSC-cardiomyocytes (hiPSC-cardiomyocytes; 10 μM): 66.0%
- relative beating of the hiPSC-cardiomyocytes (hiPSC-cardiomyocytes; 100 μM): 2.78%
Compound: COc1cccc2c1C(=O)c1c(O)c3c(c(O)c1C2=O)C[C@@](O)(C(=O)CO)C[C@@H]3O[C@H]1C[C@H](N)[C@H](O)[C@H](C)O1 [doxorubicin]
- toxicity on the endothelial component of the constructs (vWF expression) [3]: corresponded well with that observed for the rat myocardial organoids
